# Reference: ChEMBL document CHEMBL5244245, “Medicinal chemistry insights into novel CDC25 inhibitors” (Eur J Med Chem, 2020)
# Tests used:
# [1] = target: T1, M-phase inducer phosphatase 1 (Homo sapiens, UniProt P30304); assay: Inhibition of CDC25A (unknown origin)
# T1 sequence (P30304 whole entry): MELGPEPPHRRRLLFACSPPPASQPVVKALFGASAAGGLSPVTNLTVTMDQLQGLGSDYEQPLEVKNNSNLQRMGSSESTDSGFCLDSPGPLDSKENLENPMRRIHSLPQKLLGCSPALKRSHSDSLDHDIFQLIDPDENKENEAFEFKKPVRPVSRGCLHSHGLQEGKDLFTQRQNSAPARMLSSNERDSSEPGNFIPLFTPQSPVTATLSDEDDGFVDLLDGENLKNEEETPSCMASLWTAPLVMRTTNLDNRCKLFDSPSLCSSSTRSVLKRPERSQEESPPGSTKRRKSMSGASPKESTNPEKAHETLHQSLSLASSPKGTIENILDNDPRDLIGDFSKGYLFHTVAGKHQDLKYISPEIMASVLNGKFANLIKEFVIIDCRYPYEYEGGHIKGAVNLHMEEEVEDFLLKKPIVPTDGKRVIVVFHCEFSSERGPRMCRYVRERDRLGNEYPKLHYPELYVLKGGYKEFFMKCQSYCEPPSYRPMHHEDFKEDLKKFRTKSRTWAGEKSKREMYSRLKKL
# [2] = target: T2, M-phase inducer phosphatase 3 (Homo sapiens, UniProt P30307); assay: Inhibition of CDC25C (unknown origin)
# T2 sequence (P30307 whole entry): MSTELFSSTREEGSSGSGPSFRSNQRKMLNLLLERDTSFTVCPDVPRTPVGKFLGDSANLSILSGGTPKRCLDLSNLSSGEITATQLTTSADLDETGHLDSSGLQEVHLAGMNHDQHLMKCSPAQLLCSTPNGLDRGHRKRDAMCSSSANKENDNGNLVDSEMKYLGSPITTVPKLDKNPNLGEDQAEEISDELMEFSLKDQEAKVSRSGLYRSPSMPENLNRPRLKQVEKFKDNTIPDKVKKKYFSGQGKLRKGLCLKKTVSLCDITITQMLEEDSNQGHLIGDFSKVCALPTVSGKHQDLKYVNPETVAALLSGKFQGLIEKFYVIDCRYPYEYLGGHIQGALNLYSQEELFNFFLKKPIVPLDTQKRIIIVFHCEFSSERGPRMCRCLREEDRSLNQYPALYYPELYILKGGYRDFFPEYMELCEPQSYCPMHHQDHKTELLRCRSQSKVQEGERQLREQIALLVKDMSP
# [3] = target: T3, M-phase inducer phosphatase 2 (Homo sapiens, UniProt P30305); assay: Inhibition of CDC25B (unknown origin)
# T3 sequence (P30305 whole entry): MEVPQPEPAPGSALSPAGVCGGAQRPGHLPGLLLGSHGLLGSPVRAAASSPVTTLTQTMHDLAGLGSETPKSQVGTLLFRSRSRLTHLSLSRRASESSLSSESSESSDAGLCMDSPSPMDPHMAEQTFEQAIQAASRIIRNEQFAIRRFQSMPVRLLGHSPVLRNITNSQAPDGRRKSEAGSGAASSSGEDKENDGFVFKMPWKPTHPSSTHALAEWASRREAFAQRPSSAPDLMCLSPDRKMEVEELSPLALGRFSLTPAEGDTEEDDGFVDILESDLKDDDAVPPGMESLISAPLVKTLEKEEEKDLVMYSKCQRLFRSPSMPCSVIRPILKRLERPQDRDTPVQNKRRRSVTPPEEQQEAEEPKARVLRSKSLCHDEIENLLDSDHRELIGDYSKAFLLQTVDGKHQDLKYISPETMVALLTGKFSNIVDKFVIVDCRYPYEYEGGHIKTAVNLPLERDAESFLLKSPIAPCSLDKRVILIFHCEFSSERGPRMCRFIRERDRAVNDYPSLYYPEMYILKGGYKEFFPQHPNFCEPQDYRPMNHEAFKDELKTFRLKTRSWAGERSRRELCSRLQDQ
# HCT-116 = assay: Antitumor activity against human HCT-116 cells; type: functional, cell-based
# [4] = target: T2, M-phase inducer phosphatase 3; assay: Inhibition of human CDC25C
# [5] = target: T3, M-phase inducer phosphatase 2; assay: Inhibition of human CDC25B
# [6] = target: T1, M-phase inducer phosphatase 1; assay: Inhibition of human CDC25A
# [7] = target: T2, M-phase inducer phosphatase 3; assay: Inhibition of recombinant CDC25C (unknown origin)
# [8] = target: T1, M-phase inducer phosphatase 1; assay: Inhibition of recombinant CDC25A (unknown origin)
# [9] = target: T3, M-phase inducer phosphatase 2; assay: Inhibition of recombinant CDC25B (unknown origin)
# [10] = target: T1, M-phase inducer phosphatase 1; assay: Inhibition of N-terminal FLAG-tagged wild type CDC25A (331 to 524 residues) (unknown origin) expressed in Escherichia coli BL21 (DE3) cells incubated for 45 mins
# [11] = target: T3, M-phase inducer phosphatase 2; assay: Inhibition of recombinant N-terminal GST-tagged CDC25B (372 to 551 residues) (unknown origin) expressed in Escherichia coli BL21 (DE3) cells incubated for 45 mins
# [12] = Antitumor activity against human RPMI cells; type: functional, cell-based
# [13] = target: T3, M-phase inducer phosphatase 2; assay: Inhibition of human recombinant CDC25B
# HeLa = assay: Cytotoxicity against human HeLa cells assessed as inhibition of cell growth incubated for 48 hrs by MTT assay; type: functional, cell-based
# [14] = target: T1, M-phase inducer phosphatase 1; assay: Inhibition of CDC25A (unknown origin) using fluorescein diphosphate as substrate
# [15] = target: T2, M-phase inducer phosphatase 3; assay: Inhibition of recombinant N-terminal GST-tagged CDC25C (unknown origin) expressed in Escherichia coli BL21 (DE3) cells incubated for 2 hrs
# [16] = target: T3, M-phase inducer phosphatase 2; assay: Inhibition of recombinant N-terminal GST-tagged CDC25B (unknown origin) expressed in Escherichia coli BL21 (DE3) cells incubated for 2 hrs
# [17] = target: T1, M-phase inducer phosphatase 1; assay: Inhibition of recombinant N-terminal GST-tagged CDC25A (unknown origin) expressed in Escherichia coli BL21 (DE3) cells incubated for 2 hrs
smiles,measurement,setting,value
O=C(O)C1CCCCC1c1c2ccc(=O)cc-2oc2cc(O)ccc12 (stereo not drawn),IC50,[1],0.65 µM
same,IC50,[2],3.5 µM
same,IC50,[3],0.78 µM
CC(C)=CCOc1ccc(C(=O)/C=C/c2ccc(Cl)cc2)c(O)c1,IC50,HCT-116,0.89 µM
O=C(O)c1ccc(NC2=C(Cl)C(=O)c3ccccc3C2=O)cc1,IC50,[4],5.41 µM
same,IC50,[5],11.1 µM
same,IC50,[6],3.19 µM
C[C@@H](C[C@@H](O)C(C)(C)C=O)[C@@H]1CC[C@]2(C)C3=CC[C@H]4C(C)(C)C(=O)CC[C@]4(C)[C@H]3CC[C@@]12C,IC50,[3],2.1 µM
Cc1nc2c(s1)C(=O)C=C(NCCN(C)C)C2=O,IC50,[7],0.023 µM
same,IC50,[8],0.023 µM
same,IC50,[9],0.053 µM
N#Cc1c(F)cc(O)cc1SCCS(=O)(=O)O,IC50,[10],2200 µM
same,IC50,[11],1000 µM
CCNC1=C(F)C(=O)c2c(F)c(F)c(F)c(F)c2C1=O,IC50,[12],0.7 µM
CCOC(=O)C1=C(C)N=c2s/c(=C\c3cc(Br)c(O)c(Br)c3)c(=O)n2C1c1ccc2c(c1)OCO2 (stereo not drawn),IC50,[13],4.5 µM
COC1=CC(=O)C=C([S@@+]([O-])c2ccc(C)cc2)C1=O,IC50,[4],5.72 µM
same,IC50,[5],6.99 µM
same,IC50,[6],2.6 µM
CC(C)n1c2c(=O)c(-c3ccccc3)cc(=O)c2c2c(=O)c3ccccc3c21,IC50,[1],2.01 µM
same,IC50,[2],2 µM
CC(C)n1c2c(=O)c(-c3ccc(F)cc3)cc(=O)c2c2c(=O)c3ccccc3c21,IC50,[1],2.73 µM
same,IC50,[2],2.55 µM
CCCc1cc(O)nc(SCC(=O)NCCSCc2ccco2)n1,IC50,HeLa,66.3 µM
same,IC50,[14],7.9 µM
CN(C)CCNC1=CC(=O)c2nc(-c3cc(F)ccc3F)oc2C1=O,IC50,[7],0.023 µM
same,IC50,[8],0.023 µM
same,IC50,[9],0.053 µM
CCCCOc1cc2c(c3c(=O)oc4ccccc4c13)C(=O)C=CC2=O,IC50,[1],13.2 µM
same,IC50,[2],9 µM
same,IC50,[3],46.1 µM
CCOC(=O)c1ccc(N2C(=O)/C(=C\c3cccc(C)c3)SC2c2ccccc2)cc1 (stereo not drawn),IC50,[5],39 µM
CCOC(=O)C1=C(C)N=c2s/c(=C\c3ccc(-n4cc(CNC(=O)Nc5sccc5C(=O)O)nn4)cc3)c(=O)n2C1c1ccccc1 (stereo not drawn),IC50,[3],3 µM
O=C1C(F)=C(Nc2ccccc2)C(=O)c2c(F)c(F)c(F)c(F)c21,IC50,[12],0.8 µM
CC(C)n1c2c(=O)c(-c3ccco3)cc(=O)c2c2c(=O)c3ccccc3c21,IC50,[1],1.68 µM
same,IC50,[2],1.72 µM
"CCCCCCCCCCCC/C=C/[C@]12C(=O)O[C@]3(C)O[C@]4(C)OC(=O)C(=C[C@H]1CCCCCCCCCCCC)C4C32 (single isomer, unassigned)",IC50,[3],6.44 µM
CCSC1=C(C)C(=O)c2ccccc2C1=O,IC50,[1],5.5 µM
same,IC50,[3],4.7 µM
COc1ccc2c(CSC3=CC(=O)c4ccccc4C3=O)cc(=O)oc2c1,IC50,[15],0.9 µM
same,IC50,[16],9.1 µM
same,IC50,[17],4.3 µM
Cc1cc(=O)c2c(c1=O)c1c(=O)c3ccccc3c1n2C(C)C,IC50,[1],2 µM
same,IC50,[2],2.51 µM
